A word on the pIC50: it is the negative decadic logarithm of the IC50, by convention in mol/L.

What all share (settings): average where tested multiple times
In one assay the target is T1, hBCAT1 (Homo sapiens, UniProt P54687).
T1 sequence (P54687 1-386): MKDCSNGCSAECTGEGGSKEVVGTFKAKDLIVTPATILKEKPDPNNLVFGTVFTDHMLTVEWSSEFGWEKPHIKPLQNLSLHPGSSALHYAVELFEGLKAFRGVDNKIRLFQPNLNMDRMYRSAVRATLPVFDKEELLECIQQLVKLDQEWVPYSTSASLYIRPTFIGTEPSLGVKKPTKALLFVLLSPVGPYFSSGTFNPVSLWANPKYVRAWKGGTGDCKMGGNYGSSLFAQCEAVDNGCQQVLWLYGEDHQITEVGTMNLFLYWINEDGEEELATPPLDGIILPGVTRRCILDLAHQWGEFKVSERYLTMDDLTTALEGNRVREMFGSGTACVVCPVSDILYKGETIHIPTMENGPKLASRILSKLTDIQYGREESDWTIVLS
Briefly: BCAT1 in vitro enzyme inhibition assay (resazurin/diaphorase-coupled fluorescence). Format: biochemical. The procedure, abridged:
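Ten-point, 3-fold compound series (top final 100 μM, delivered 1:50 from 50× DMSO stocks) tested against hBCAT1. Inhibition detected via diaphorase-coupled resazurin fluorescence, duplicate wells, with values from repeated runs averaged.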
For orientation: Resazurin is reduced to fluorescent resorufin, in cell work by metabolically active cells.

Assay [1] deals with T2, BCAT2 (Homo sapiens, UniProt O15382).
T2 sequence (O15382 28-392): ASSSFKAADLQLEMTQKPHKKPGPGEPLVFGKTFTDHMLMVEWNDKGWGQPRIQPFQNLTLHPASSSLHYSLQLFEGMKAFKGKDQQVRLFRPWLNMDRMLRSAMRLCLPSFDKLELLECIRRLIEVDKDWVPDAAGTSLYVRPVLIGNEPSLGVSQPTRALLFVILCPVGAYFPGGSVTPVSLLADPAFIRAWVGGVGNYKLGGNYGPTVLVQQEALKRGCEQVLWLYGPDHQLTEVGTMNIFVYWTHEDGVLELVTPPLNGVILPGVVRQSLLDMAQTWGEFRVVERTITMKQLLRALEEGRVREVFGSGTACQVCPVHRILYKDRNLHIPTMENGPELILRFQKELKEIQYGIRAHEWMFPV
Description: BCAT2 in vitro enzyme inhibition assay (resazurin/diaphorase-coupled fluorescence). Format: biochemical. The procedure, abridged: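 Coupled fluorescence readout: glutamate formed from L-leucine/α-ketoglutarate transamination drives GDH/NAD/diaphorase reduction of resazurin (Ex 540/Em 590). Human BCAT2 was first exposed 1 h at room temperature to compound, top final 100 μM in 3-fold, 10-point series; substrate reaction ran 1 h before SDS quench, in technical duplicate with DMSO max and enzyme-free min controls.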

The target of assay [2] is T2, BCAT2. Description: BCAT2 in vitro cell inhibition using engineered A549 cells (KMV cell assay, 13C6-KMV by LC-MS/MS). It counts as cell-based. Also on record: The result was an engineered A549 cell line that expressed endogenous BCAT2; endogenous in cells; host or cells: A549 cells with MUT and BCAT1 knocked out by CRISPR/CAS9; key to BCAT2 Cell Inhibition: A: less than or equal to 0.100 μM; B: greater than 0.100 and less than or equal to 0.500 μM; C: greater than 0.500 and less than or equal to 1.000 μM; d: greater than 1.000 μM; E: no fit.

SMILES strings stand for the structures. pIC50: −log10 of the molar value. Some results are limits rather than exact numbers.

Take `C#Cc1cnc(C(=O)N[C@H]2CCC[C@@H](n3c(-c4ccccc4F)nc4cnc(-c5ncco5)cc43)C2)s1` [Example 8, 5-ethynyl-N-((1S,3R)-3-(2-(2-fluorophenyl)-6-(oxazol-2-yl)-1H-imidazo[4,5-c]pyridin-1-yl)cyclohexyl)thiazole-2-carboxamide]: the pIC50 at hBCAT1 is greater than 6.30; on BCAT2 [1], no less than 7.00; at BCAT2 [2] it was no less than 7.00.

Consider `CC(C)Cc1nc2cnc(-n3nccn3)cc2n1[C@@H]1COC[C@H](NC(=O)c2ccc(Cl)s2)C1` (single isomer, unassigned) [Example 141], for which the pIC50 against hBCAT1 was greater than 6.30; against BCAT2 [1], no less than 7.00; at BCAT2 [2] it was no less than 7.00.

Take `CC(C)Cc1nc2cnc(-c3ccc4ccoc4c3)cc2n1[C@@H]1CCC[C@H](NC(=O)c2ncc(Cl)s2)C1` [Example 319, N-((1S,3R)-3-(6-(benzofuran-6-yl)-2-isobutyl-1H-imidazo[4,5-c]pyridin-1-yl)cyclohexyl)-5-chlorothiazole-2-carboxamide]: the pIC50 at hBCAT1 is 5.30 to 6.00; at BCAT2 [1] it was 6.30 to 7.00. Besides, the “BCAT2 Cell Inhibition” value on BCAT2 [2] is recorded as “E”.

Regarding `CC(C)Cc1nc2cnc(-c3nc[nH]n3)cc2n1[C@@H]1CCC[C@H](NC(=O)c2ncc(Cl)s2)[C@H]1O` [Example 250, 5-chloro-N-((1S,2R,3R)-2-hydroxy-3-(2-isobutyl-6-(1H-1,2,4-triazol-3-yl)-1H-imidazo[4,5-c]pyridin-1-yl)cyclohexyl)thiazole-2-carboxamide], the pIC50 on hBCAT1 was greater than 6.30; at BCAT2 [1] it was no less than 7.00; against BCAT2 [2], no less than 7.00.

Take `O=C(N[C@H]1CCC[C@@H](n2c(-c3ccccc3F)nc3cnc(-n4nccn4)cc32)C1)c1ccc(Cl)s1` [Example 72, 5-chloro-N-((1S,3R)-3-(2-(2-fluorophenyl)-6-(2H-1,2,3-triazol-2-yl)-1H-imidazo[4,5-c]pyridin-1-yl)cyclohexyl)thiophene-2-carboxamide]: the pIC50 at hBCAT1 is greater than 6.30; against BCAT2 [1], no less than 7.00; on BCAT2 [2], no less than 7.00.

Regarding `O=C(N[C@H]1CCC[C@@H](n2c(-c3ccccc3F)nc3cnc(-c4ccn[nH]4)cc32)[C@@H]1O)c1ncc(Cl)s1` [Example 240, 5-chloro-N-((1S,2R,3R)-3-(2-(2-fluorophenyl)-6-(1H-pyrazol-5-yl)-1H-imidazo[4,5-c]pyridin-1-yl)-2-hydroxycyclohexyl)thiazole-2-carboxamide], the pIC50 was greater than 6.30 against hBCAT1, no less than 7.00 against BCAT2 [1] and no less than 7.00 at BCAT2 [2].

In the case of `O=C(N[C@H]1CCC[C@@H](n2c(-c3ccccc3F)nc3cnc(-n4nccn4)cc32)C1)c1ncc(C(F)F)s1` [Example 25, 5-(difluoromethyl)-N-((1S,3R)-3-(2-(2-fluorophenyl)-6-(2H-1,2,3-triazol-2-yl)-1H-imidazo[4,5-c]pyridin-1-yl)cyclohexyl)thiazole-2-carboxamide], the pIC50 at hBCAT1 was greater than 6.30; against BCAT2 [1], no less than 7.00; on BCAT2 [2] it was no less than 7.00.

Regarding `O=C(N[C@H]1CCC[C@@H](n2c(C3CCCCO3)nc3cnc(-c4nc[nH]n4)cc32)C1)c1ncc(Cl)s1` (single isomer, unassigned) [Example 89], the pIC50 against hBCAT1 was 6.00 to 6.30; at BCAT2 [1], no less than 7.00; on BCAT2 [2] it was 6.30 to 7.00.

Turning to `Cn1nccc1-c1nc2cnc(-n3ccnn3)cc2n1[C@@H]1CCC[C@H](NC(=O)c2ncc(C(F)F)s2)C1` [Example 44, 5-(difluoromethyl)-N-((1S,3R)-3-(2-(1-methyl-1H-pyrazol-5-yl)-6-(1H-1,2,3-triazol-1-yl)-1H-imidazo[4,5-c]pyridin-1-yl)cyclohexyl)thiazole-2-carboxamide], the pIC50 against hBCAT1 is less than 5.30; at BCAT2 [1] it was less than 6.00. Moreover, the “BCAT2 Cell Inhibition” value at BCAT2 [2] is given as “E”.

Take `O=C(N[C@H]1CCC[C@@H](n2c(-n3nccn3)nc3cnc(-n4nccn4)cc32)C1)c1ncc(C(F)F)s1` [Example 67, N-((1S,3R)-3-(2,6-di(2H-1,2,3-triazol-2-yl)-1H-imidazo[4,5-c]pyridin-1-yl)cyclohexyl)-5-(difluoromethyl)thiazole-2-carboxamide]: the pIC50 is less than 5.30 against hBCAT1, 6.30 to 7.00 on BCAT2 [1] and less than 6.00 against BCAT2 [2].

With `O=C(N[C@H]1CCC[C@@H](n2c(CC3CC3)nc3cnc(-c4nc[nH]n4)cc32)C1)c1ncc(Cl)s1` [Example 312, 5-chloro-N-((1S,3R)-3-(2-(cyclopropylmethyl)-6-(1H-1,2,4-triazol-3-yl)-1H-imidazo[4,5-c]pyridin-1-yl)cyclohexyl)thiazole-2-carboxamide], the pIC50 was greater than 6.30 on hBCAT1, no less than 7.00 on BCAT2 [1] and no less than 7.00 at BCAT2 [2].

Take `CS(=O)(=O)N1C[C@H](NC(=O)c2ccc(Cl)s2)C[C@H](n2c(-c3ccccc3F)nc3cnc(-c4nc[nH]n4)cc32)C1` [Example 458, 5-chloro-N-((3R,5S)-5-(2-(2-fluorophenyl)-6-(1H-1,2,4-triazol-3-yl)-1H-imidazo[4,5-c]pyridin-1-yl)-1-(methylsulfonyl)piperidin-3-yl)thiophene-2-carboxamide]: the pIC50 is greater than 6.30 against hBCAT1, no less than 7.00 against BCAT2 [1] and no less than 7.00 at BCAT2 [2].

For `O=C(N[C@H]1CCC[C@@H](n2c(-c3ccccc3C(=O)O)nc3cnc(-n4nccn4)cc32)C1)c1ncc(C(F)F)s1` [Example 99, 2-(1-((1R,3S)-3-(5-(difluoromethyl)thiazole-2-carboxamido)cyclohexyl)-6-(2H-1,2,3-triazol-2-yl)-1H-imidazo[4,5-c]pyridin-2-yl)benzoic acid], the values for the pIC50 against hBCAT1 and on BCAT2 [1] were 5.30 to 6.00 and no less than 7.00, respectively. Moreover, the “BCAT2 Cell Inhibition” value at BCAT2 [2] is “E”.

Turning to `O=C(N[C@H]1CCC[C@@H](n2c(-c3ccccc3F)nc3cnc(-c4cnn[nH]4)cc32)C1)c1ncc(Cl)s1` [Example 189, 5-chloro-N-((1S,3R)-3-(2-(2-fluorophenyl)-6-(1H-1,2,3-triazol-5-yl)-1H-imidazo[4,5-c]pyridin-1-yl)cyclohexyl)thiazole-2-carboxamide], the pIC50 against hBCAT1 was greater than 6.30; at BCAT2 [1] it was no less than 7.00; against BCAT2 [2] it was no less than 7.00.

For the compound `C#Cc1cnc(C(=O)N[C@H]2CCC[C@@H](n3c(-c4ncccc4F)nc4cnc(-n5nccn5)cc43)C2)s1` [Example 23, 5-ethynyl-N-((1S,3R)-3-(2-(3-fluoropyridin-2-yl)-6-(2H-1,2,3-triazol-2-yl)-1H-imidazo[4,5-c]pyridin-1-yl)cyclohexyl)thiazole-2-carboxamide], the values for the pIC50 at hBCAT1, against BCAT2 [1] and against BCAT2 [2] were greater than 6.30, no less than 7.00 and no less than 7.00, respectively.

Turning to `C#Cc1cnc(C(=O)N[C@H]2CCC[C@@H](n3c(-c4ncccc4C)nc4cnc(-n5nccn5)cc43)C2)s1` [Example 61, 5-ethynyl-N-((1S,3R)-3-(2-(3-methylpyridin-2-yl)-6-(2H-1,2,3-triazol-2-yl)-1H-imidazo[4,5-c]pyridin-1-yl)cyclohexyl)thiazole-2-carboxamide], the pIC50 is greater than 6.30 on hBCAT1, no less than 7.00 against BCAT2 [1] and no less than 7.00 on BCAT2 [2].

`O=C(N[C@H]1CCC[C@@H](n2c(-c3ccccc3F)nc3cnc(-n4nccn4)cc32)[C@@H]1O)c1ncc(Cl)s1` (single isomer, unassigned) [Example 113]: the pIC50 at hBCAT1 is greater than 6.30; at BCAT2 [1] it was no less than 7.00; at BCAT2 [2] it was no less than 7.00.

In the case of `CC(C)Cc1nc2cnc(-c3nc[nH]n3)cc2n1[C@H]1C[C@@H](NC(=O)c2ncc(Cl)s2)CN(C)C1` (single isomer, unassigned) [Example 136], the pIC50 against hBCAT1 was greater than 6.30; at BCAT2 [1], no less than 7.00; on BCAT2 [2], no less than 7.00.

For `CC(C)Cc1nc2cnc(-c3ccccn3)cc2n1[C@@H]1C[C@@H](O)C[C@H](NC(=O)c2ncc(Cl)s2)C1` (single isomer, unassigned) [Example 214], the pIC50 at hBCAT1 is greater than 6.30; on BCAT2 [1] it was no less than 7.00; against BCAT2 [2], no less than 7.00.

Source of the values: patent publication US20260159512A1, “BCAT2 INHIBITORS” (AGIOS PHARMACEUTICALS, INC., priority 2021, published 2026).
